The source of these data is ChEMBL document CHEMBL1201862, “PubChem BioAssay data set” (2004).

Activity calls are given as the source filed them.

For experiment [1], the target named is T1, Rac GTPase-activating protein 1 (Homo sapiens, UniProt Q9H0H5).
T1 sequence (Q9H0H5 whole entry): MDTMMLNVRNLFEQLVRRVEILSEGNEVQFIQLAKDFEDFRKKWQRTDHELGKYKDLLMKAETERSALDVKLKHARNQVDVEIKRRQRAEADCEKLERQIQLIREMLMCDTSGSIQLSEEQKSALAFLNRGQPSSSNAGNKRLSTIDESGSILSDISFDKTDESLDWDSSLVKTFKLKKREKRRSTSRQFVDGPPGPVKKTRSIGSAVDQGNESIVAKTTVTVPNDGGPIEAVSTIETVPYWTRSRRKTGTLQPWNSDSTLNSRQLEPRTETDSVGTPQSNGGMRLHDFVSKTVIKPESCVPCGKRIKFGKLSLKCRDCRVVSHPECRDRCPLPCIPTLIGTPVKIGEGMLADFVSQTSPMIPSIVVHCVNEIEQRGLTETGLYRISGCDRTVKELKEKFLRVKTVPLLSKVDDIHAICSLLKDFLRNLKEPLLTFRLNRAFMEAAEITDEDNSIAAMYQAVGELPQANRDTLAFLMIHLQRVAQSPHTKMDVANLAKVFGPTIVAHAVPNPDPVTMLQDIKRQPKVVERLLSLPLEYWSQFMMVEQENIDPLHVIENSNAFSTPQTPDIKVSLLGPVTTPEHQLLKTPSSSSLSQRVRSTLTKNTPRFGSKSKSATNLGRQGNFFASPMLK
The experiment is described as follows: blockers of MgcRacGAP-driven Rac1 GTP hydrolysis – biochemical, ADP Hunter fluorescence, primary and confirmatory, confirmation (AID 624330). It counts as functional.

In experiment [2] the target is T2, Corticotropin-releasing factor receptor 2/Corticotropin-releasing factor-binding protein (Homo sapiens, UniProt P24387+Q13324).
T2 sequence (Q13324 whole entry): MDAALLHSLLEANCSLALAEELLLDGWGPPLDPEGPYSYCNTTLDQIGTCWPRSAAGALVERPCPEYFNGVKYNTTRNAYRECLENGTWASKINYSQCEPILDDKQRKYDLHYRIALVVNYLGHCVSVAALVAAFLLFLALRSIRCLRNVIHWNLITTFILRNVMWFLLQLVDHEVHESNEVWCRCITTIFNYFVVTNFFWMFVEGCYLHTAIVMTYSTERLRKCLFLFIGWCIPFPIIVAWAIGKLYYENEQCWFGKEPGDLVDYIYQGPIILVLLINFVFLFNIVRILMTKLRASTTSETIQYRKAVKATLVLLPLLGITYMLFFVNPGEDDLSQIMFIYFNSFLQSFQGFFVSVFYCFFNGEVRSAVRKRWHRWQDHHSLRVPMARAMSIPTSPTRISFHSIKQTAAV
T2 sequence (P24387 whole entry): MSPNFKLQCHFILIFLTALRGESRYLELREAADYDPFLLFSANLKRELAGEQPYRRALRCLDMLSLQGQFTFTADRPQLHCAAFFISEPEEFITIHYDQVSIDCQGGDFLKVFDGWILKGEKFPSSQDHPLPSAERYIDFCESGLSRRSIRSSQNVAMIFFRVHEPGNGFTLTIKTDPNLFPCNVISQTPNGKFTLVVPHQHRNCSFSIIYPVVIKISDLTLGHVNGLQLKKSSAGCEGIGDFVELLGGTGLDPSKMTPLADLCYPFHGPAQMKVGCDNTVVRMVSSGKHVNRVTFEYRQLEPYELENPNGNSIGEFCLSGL
Briefly: activators of CRF receptor 2 with binding protein – uHTS hits, confirmation (AID 602473). The format is functional. To be noted: read-out: EC50_Mean.

Experiment [3] addresses T3, Cytochrome P450 1A2 (Homo sapiens, UniProt P05177).
T3 sequence (P05177 whole entry): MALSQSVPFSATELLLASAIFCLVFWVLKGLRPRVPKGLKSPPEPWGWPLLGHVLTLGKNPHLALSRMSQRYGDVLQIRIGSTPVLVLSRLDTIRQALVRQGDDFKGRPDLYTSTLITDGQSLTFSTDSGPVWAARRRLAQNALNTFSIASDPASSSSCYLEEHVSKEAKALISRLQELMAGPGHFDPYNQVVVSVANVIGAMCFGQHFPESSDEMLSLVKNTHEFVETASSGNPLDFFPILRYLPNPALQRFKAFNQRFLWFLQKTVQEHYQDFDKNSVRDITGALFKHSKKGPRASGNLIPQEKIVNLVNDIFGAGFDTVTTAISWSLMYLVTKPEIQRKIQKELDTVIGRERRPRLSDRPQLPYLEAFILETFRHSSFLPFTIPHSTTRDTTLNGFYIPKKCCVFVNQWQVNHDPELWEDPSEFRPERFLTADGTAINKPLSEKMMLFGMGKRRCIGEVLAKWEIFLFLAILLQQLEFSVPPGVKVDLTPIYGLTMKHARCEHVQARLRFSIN

For experiment [4], the target named is Cytochrome P450 2D6 (Homo sapiens, UniProt P10635).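 Further: CYP2D6 member of a cytochrome P450 panel assay.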
Chain of Cytochrome P450 2D6 (P10635 whole entry): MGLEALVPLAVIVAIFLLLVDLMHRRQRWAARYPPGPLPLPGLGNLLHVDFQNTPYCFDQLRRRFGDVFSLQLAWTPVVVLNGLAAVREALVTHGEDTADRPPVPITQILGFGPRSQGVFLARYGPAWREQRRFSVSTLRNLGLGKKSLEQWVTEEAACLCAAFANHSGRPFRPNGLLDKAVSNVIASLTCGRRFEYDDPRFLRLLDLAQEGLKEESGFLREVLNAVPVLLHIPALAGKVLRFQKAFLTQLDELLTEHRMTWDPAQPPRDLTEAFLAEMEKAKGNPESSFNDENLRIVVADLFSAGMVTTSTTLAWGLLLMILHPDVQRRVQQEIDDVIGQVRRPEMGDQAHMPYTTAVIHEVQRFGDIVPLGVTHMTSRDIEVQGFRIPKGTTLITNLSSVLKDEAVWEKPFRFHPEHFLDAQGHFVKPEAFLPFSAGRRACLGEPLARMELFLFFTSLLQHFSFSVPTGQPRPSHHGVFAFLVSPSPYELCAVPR
The nature of experiment [5]: Luminescence Cell-Based Dose Confirmation HTS to Identify Activators of 5'UTR Stem-Loop Driven Alpha-Synuclein mRNA Translation in H4 Neuroglioblastoma Cells. [Related pubchem assays: 1829 (Project Summary), 1814 (Primary HTS)]. It counts as functional.
For experiment [6], the system named is H4. Briefly: Luminescence Cell-Based Dose Response HTS to Identify Activators of 5'UTR Stem-Loop Driven Prion Protein mRNA Translation in H4 Neuroglioblastoma Cells. [Related pubchem assays: 1829 (Project Summary), 1814 (Primary HTS)]. It counts as functional. To be noted: Homo sapiens.
Experiment [7] can be described thus: Luminescence Cell-Based Dose Response HTS to Identify Activators of Luciferase Translation or Activity in H4 […] Cells. [Related pubchem assays: 1829 (Project Summary), 1814 (Primary HTS)]. It counts as functional.
The target in experiment [8] is Cytochrome P450 3A4 (Homo sapiens, UniProt P08684).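 Further: CYP3A4 tested as one member of a cytochrome P450 panel screen.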
Chain of Cytochrome P450 3A4 (P08684 whole entry): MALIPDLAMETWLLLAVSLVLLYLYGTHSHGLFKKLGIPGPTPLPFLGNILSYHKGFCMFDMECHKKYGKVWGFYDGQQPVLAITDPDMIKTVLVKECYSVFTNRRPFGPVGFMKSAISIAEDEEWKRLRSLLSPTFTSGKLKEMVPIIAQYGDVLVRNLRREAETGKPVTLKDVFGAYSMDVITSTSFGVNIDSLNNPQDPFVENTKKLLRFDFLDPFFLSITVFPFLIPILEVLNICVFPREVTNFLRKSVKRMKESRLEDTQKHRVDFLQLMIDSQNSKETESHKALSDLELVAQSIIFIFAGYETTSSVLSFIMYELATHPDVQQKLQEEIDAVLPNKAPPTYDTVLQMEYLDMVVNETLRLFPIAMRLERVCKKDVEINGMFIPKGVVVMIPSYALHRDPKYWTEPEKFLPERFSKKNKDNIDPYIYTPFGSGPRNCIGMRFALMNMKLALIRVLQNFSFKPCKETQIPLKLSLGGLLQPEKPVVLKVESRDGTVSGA
Experiment [9] deals with Cytochrome P450 2C19 (Homo sapiens, UniProt P33261). Briefly: Cytochrome panel assay with activity outcomes. Panel member name: p450-cyp2c19 Compounds with AC50 equal or less than 10 uM are considered active. The format is functional. To be noted: read-out: AC50.
Chain of Cytochrome P450 2C19 (P33261 whole entry): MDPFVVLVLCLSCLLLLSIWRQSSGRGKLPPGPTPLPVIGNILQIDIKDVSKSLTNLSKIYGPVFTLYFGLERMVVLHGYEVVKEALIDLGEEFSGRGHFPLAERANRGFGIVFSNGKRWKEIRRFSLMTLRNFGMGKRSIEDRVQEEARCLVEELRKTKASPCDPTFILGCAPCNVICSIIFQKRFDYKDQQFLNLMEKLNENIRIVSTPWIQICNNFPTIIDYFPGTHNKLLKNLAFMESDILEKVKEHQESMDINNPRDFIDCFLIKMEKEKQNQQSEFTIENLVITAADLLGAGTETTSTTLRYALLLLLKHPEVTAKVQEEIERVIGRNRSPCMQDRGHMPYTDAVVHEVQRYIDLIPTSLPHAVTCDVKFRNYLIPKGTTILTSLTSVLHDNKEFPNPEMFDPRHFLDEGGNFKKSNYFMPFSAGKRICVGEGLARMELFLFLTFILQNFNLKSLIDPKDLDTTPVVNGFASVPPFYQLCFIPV
The test system of experiment [10] is Streptococcus. The experiment is described as follows: GAS UMAA2166 growth inhibition – luminescence, BacTiterGlo, counter-screen for streptokinase expression inhibitor project, dose response (AID 1915).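 Further: potency for reduction of bacterial viability or growth.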 It counts as functional, organism-based. In general terms: The purpose of a counterscreen is to sort out artefacts and off-target activity.
Experiment [11] deals with Streptococcus sp. 'group A'. Briefly: Streptococcus pyogenes SK(-)GAS viability under kanamycin – luminescence, BacTiterGlo, confirmation, counter-screen for streptokinase expression inhibitor project, dose response (AID 1900). The format is functional, organism-based.
Experiment [12] concerns the target T4, Streptokinase A (Streptococcus pyogenes serotype M1, UniProt P10520).
T4 sequence (P10520 whole entry): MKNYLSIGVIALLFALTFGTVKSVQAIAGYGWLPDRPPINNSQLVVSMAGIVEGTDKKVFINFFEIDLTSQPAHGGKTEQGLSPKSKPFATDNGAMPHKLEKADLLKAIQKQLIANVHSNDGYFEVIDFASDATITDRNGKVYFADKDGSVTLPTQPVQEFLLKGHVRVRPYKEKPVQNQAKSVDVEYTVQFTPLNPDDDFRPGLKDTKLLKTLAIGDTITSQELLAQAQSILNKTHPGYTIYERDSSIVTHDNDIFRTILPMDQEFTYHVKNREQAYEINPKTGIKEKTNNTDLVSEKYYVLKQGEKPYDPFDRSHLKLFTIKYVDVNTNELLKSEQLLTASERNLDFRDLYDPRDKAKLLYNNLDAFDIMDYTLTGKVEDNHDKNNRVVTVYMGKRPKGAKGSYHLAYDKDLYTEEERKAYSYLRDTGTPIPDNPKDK
The experiment is described as follows: viability-normalized secreted streptokinase activity reduction – plasminogen activation absorbance, OD405, dose response (AID 1914).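 Further: secreted streptokinase activity via plasminogen activation per viability signal from cell pellet.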 The format is functional, Streptococcus pyogenes M1 GAS.

By IC50 is commonly meant the concentration that inhibits the measured activity by half. Turning to `CCOc1cc(CN2CCN(C(=O)CC(C)C)CC2)ccc1OC`, the IC50 in experiment [1] was 155 µM (active).
Take `O=C1NC(=O)C2(N1)C(=O)c1cccc3cccc2c13` (stereo not drawn): in experiment [2], the EC50 is 8.84 µM (active).
What is called AC50 is the concentration at which the activity in the assay is half-maximal. As for `O=C(/C=C/c1cccnc1)c1ccc(NC(=O)c2cccc(Br)c2)cc1`, the AC50 in [3] is 14.1 µM (inconclusive); in [4], 2 µM (inconclusive).
On to `COc1ccc(NC2CCCN(C(=O)CCN3CCCC3=O)C2)cc1OC` (stereo not drawn), for which, in [1], the IC50 was 293 µM (active).
As for `CN(Cc1ccsc1)C(=O)Cn1cc(Br)ccc1=O`, the EC50 in [5] was > 120 µM (not active); in [6] it was 31.7 µM (active); in [7] it was 8.64 µM (active).
Turning to `O=S(=O)(c1cccc(-c2nnc(SCc3nc4ccccc4s3)o2)c1)N1CCOCC1`, the figures for the EC50 in experiment [5], in experiment [6] and in experiment [7] were 5.25 µM (active), > 120 µM (not active) and 21.4 µM (active), respectively.
Consider `CCC/C=C(\CCC)C(NS(=O)(=O)c1cccc2cccnc12)c1ccc(C(=O)OC)cc1` (stereo not drawn), for which, in experiment [3], the AC50 is 6.31 µM (inconclusive).
For `O=C(CSc1ccc2ccccc2n1)N/N=C/c1ccc(O)cc1`, in [1], the IC50 is 73.2 µM (active).
Turning to `Cc1ccc(/C=C2\SC(N3CCCCC3)=NC2=O)cc1`, the EC50 in [5] is 53.1 µM (active); in experiment [6], 45.1 µM (active); in experiment [7], 10.1 µM (active).
The like results for `COc1ccc(/C=C2\SC(=O)N(CCNC(=O)Cc3coc4cc(OC)ccc34)C2=O)cc1` were, in that order, 23.4 µM (active), 10.4 µM (active) and 11.5 µM (active).
As for `Cc1[nH]c2ccccc2c1C(=O)CN1CCCCC1C` (stereo not drawn), the EC50 in experiment [2] is 9.87 µM (active).
For the compound `CC1Cc2ccccc2N1C(=O)CNCCCN(C)C` (stereo not drawn), the IC50 in [1] is 76.9 µM (active).
As to `COCCn1c(=O)c(-c2ccc(OC)cc2)nc2cnc(Nc3cccc(OC)c3)nc21`, the values for the AC50 in [3] and in experiment [8] were 10 µM (inconclusive) and 5.01 µM (inconclusive), respectively.
For `COc1cc(NC(=O)c2ccccc2)c(OC)cc1NC(=O)CN1CCN(c2ccccn2)CC1`, the values for the half-maximal activity concentration (AC50) in experiment [3] and in [8] were 25.1 µM (inconclusive) and 12.6 µM (inconclusive), respectively.
Take `Cc1cc(Cc2cc(C)c(N)cc2N)c(N)cc1N`: the AC50 in [3] is 2 µM (inconclusive).
As for `Nc1ccc2c(c1Br)Cc1ccccc1-2`, in experiment [1], the IC50 is 43.8 µM (active).
For the compound `CC(=O)Nc1nnc(S)s1`, the IC50 in experiment [1] was 66.2 µM (active).
Take `NCCCCNS(=O)(=O)c1ccc2c(Cl)cccc2c1`: the values for the AC50 in [3], in experiment [4] and in experiment [8] were 39.8 µM (inconclusive), 31.6 µM (inconclusive) and 25.1 µM (inconclusive), respectively.
For `COC(=O)c1ccccc1NS(=O)(=O)c1ccc2c3c(cccc13)C(=O)N2`, in that order: 15.8 µM (inconclusive), 28.2 µM (inconclusive) and 12.6 µM (inconclusive).
For the compound `Cn1c(SCC(=O)N/N=C/c2cc([N+](=O)[O-])ccc2O)nnc1-c1ccccc1`, the EC50 in experiment [2] was > 53 µM (inactive).
With `O=[N+]([O-])c1cc([N+](=O)[O-])c2nonc2c1Nc1ccccc1O`, in experiment [1], the IC50 was 76.9 µM (active).
With `COc1cc(/C=C/C(=O)OCC(=O)N2CCN(S(=O)(=O)c3ccc(C)cc3C)CC2)ccc1O`, the IC50 in [1] is 88.2 µM (active).
For `COC(=O)[C@H](C)[C@@H]1C[C@@]1(C)[C@@H](NC(=O)OCc1ccccc1)c1ccccc1`, in experiment [3], the AC50 was 15.8 µM (inconclusive).
As to `CCO[C@H]1O[C@@H]([C@H](COCc2ccccc2)OCc2ccccc2)[C@@H](OCc2ccccc2)[C@H]1O`, the AC50 was 12.6 µM (inconclusive) in experiment [3], 15.8 µM (inconclusive) in experiment [4] and 5.01 µM (inconclusive) in experiment [9].
`Cc1nn(-c2ccccc2)c(C)c1C(=O)OCC(=O)N(C)C1CCS(=O)(=O)C1` (stereo not drawn): the EC50 was 0.313 µM (active) in experiment [5] and 12.5 µM (active) in experiment [7].
As for `Cn1c(=O)c(C(=O)NNC(=O)c2ccccc2Br)c(O)c2ccccc21`, the EC50 in experiment [10] was 18.7 µM (active); in [11], 4.72 µM (active); in experiment [12] it was > 150 µM (not active).
For the compound `C=CCNC(=O)c1ccccc1NC(=O)c1ccc(Cl)c(S(=O)(=O)Nc2cc(C)ccc2C)c1`, the EC50 in experiment [10] is > 150 µM (not active); in [11], 24.8 µM (active); in experiment [12], 41.7 µM (active).
On to `CC(C)N1CCc2c(sc(NC(=O)CCS(=O)(=O)c3ccccc3)c2C#N)C1`, for which the EC50 in [10], in [11] and in experiment [12] was > 150 µM (not active) in each case.
Regarding `CC(C)(C)c1ccc(C(=O)NCc2ccc(Cl)cc2)cc1`, in [3], the AC50 was 2 µM (inconclusive).
With `COC(=O)C1C(O)=C(/C=N/c2ccc(N)cc2)C(=O)CC1(C)C` (stereo not drawn), the IC50 in experiment [1] was 40 µM (active).
Consider `COC(=O)[C@@]1(Cc2ccc(F)cc2)[C@H]2c3cc(C(=O)N4CCCC4)n(Cc4ccc(S(C)(=O)=O)cc4)c3C[C@H]2CN1C(=O)c1ccccc1`, for which the AC50 is 15.8 µM (inconclusive) in experiment [3] and 1.26 µM (inconclusive) in [8].
`Cn1nc(C(F)(F)F)c(C(=O)Nc2ccc(F)cc2F)c1Sc1cccc(C(F)(F)F)c1`: the AC50 in [3] was 15.8 µM (inconclusive); in [4], 20 µM (inconclusive).
